Reference: PubChem BioAssay AID248 (DTP/NCI, 2004)
Inconclusive results and toxic doses are left out. No stated cut-off is given here; in the data, active means T/C of 150% or more; inactive means T/C below 125%.

Test system: L1210 leukemia ip in BDF1 mice, survival T/C
Assay: NCI In Vivo Anticancer Drug Screen. Data for tumor model L1210 Leukemia (intraperitoneal) in B6D2F1 (BDF1) mice
Conditions: endpoint: mean survival time, higher = longer survival
Summary of the method: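 Value reflects the ratio of survival in compound-treated mice to survival in vehicle-treated controls, with both groups carrying the same transplanted tumor.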

[1] = dose: 75.0 mg/kg/injection, schedule: Q01DX001 (ip), vehicle: saline
[2] = dose: 150.0 mg/kg/injection, schedule: Q01DX001 (ip), vehicle: saline
[3] = dose: 100.0 mg/kg/injection, schedule: Q04DX002 (ip), vehicle: Klucel (hydroxypropylcellulose) (HPC)
[4] = dose: 200.0 mg/kg/injection, schedule: Q04DX002 (ip), vehicle: Klucel (hydroxypropylcellulose) (HPC)
[5] = dose: 400.0 mg/kg/injection, schedule: Q04DX002 (ip), vehicle: Klucel (hydroxypropylcellulose) (HPC)
[6] = dose: 12.5 mg/kg/injection, schedule: Q01DX009 (ip), vehicle: saline with Tween-80
[7] = dose: 25.0 mg/kg/injection, schedule: Q01DX009 (ip), vehicle: saline with Tween-80
[8] = dose: 25.0 mg/kg/injection, schedule: Q04DX003 (ip), vehicle: saline with Tween-80
[9] = dose: 50.0 mg/kg/injection, schedule: Q01DX009 (ip), vehicle: saline with Tween-80
[10] = dose: 50.0 mg/kg/injection, schedule: Q04DX003 (ip), vehicle: saline with Tween-80
[11] = dose: 100.0 mg/kg/injection, schedule: Q04DX003 (ip), vehicle: saline with Tween-80
[12] = dose: 100.0 mg/kg/injection, schedule: Q01DX009 (ip), vehicle: Klucel (hydroxypropylcellulose) (HPC)
[13] = dose: 100.0 mg/kg/injection, schedule: Q04DX003 (ip), vehicle: Klucel (hydroxypropylcellulose) (HPC)
[14] = dose: 200.0 mg/kg/injection, schedule: Q01DX009 (ip), vehicle: Klucel (hydroxypropylcellulose) (HPC)
[15] = dose: 200.0 mg/kg/injection, schedule: Q04DX003 (ip), vehicle: Klucel (hydroxypropylcellulose) (HPC)
[16] = dose: 400.0 mg/kg/injection, schedule: Q04DX003 (ip), vehicle: Klucel (hydroxypropylcellulose) (HPC)
[17] = dose: 75.0 mg/kg/injection, schedule: Q04DX003 (ip), vehicle: saline
[18] = dose: 300.0 mg/kg/injection, schedule: Q04DX003 (ip), vehicle: saline
[19] = dose: 50.0 mg/kg/injection, schedule: Q01DX009 (ip), vehicle: Klucel (hydroxypropylcellulose) (HPC)
[20] = dose: 50.0 mg/kg/injection, schedule: Q04DX003 (ip), vehicle: Klucel (hydroxypropylcellulose) (HPC)
[21] = dose: 100.0 mg/kg/injection, schedule: Q01DX001 (ip), vehicle: carboxymethylcellulose (CMC)
[22] = dose: 200.0 mg/kg/injection, schedule: Q01DX001 (ip), vehicle: carboxymethylcellulose (CMC)
[23] = dose: 400.0 mg/kg/injection, schedule: Q01DX001 (ip), vehicle: carboxymethylcellulose (CMC)
[24] = dose: 25.0 mg/kg/injection, schedule: Q01DX009 (ip), vehicle: saline
[25] = dose: 50.0 mg/kg/injection, schedule: Q01DX009 (ip), vehicle: saline

Measured: T/C

CCCCCCCCCCCCc1ccc(-c2cc(-c3ccccc3)cc(-c3ccccc3)c2)cc1
inactive: [1] 100 % of control | [2] 89 % of control | dose: 300.0 mg/kg/injection, schedule: Q01DX001 (ip), vehicle: saline 94 % of control

Cc1nnc(N)nc1C
inactive: [3] 95 % of control | [4] 103 % of control | [5] 95 % of control

CCCCCOS(=O)(=O)c1ccc(Cl)c([N+](=O)[O-])c1
inactive: [6] 93 % of control | [7] 87 % of control | [8] 95 % of control | [9] 98 % of control | [10] 90 % of control

CN(C)C(=S)SCSC(=S)N(C)C
inactive: [8] 100 % of control | [10] 91 % of control | [3] 97 % of control | [11] 91 % of control | [4] 93 % of control | [5] 93 % of control

COC(=O)C(Br)(Br)C(=O)OC
inactive: dose: 12.5 mg/kg/injection, schedule: Q04DX002 (ip), vehicle: saline with Tween-80 97 % of control | dose: 25.0 mg/kg/injection, schedule: Q04DX002 (ip), vehicle: saline with Tween-80 105 % of control | dose: 50.0 mg/kg/injection, schedule: Q04DX002 (ip), vehicle: saline with Tween-80 101 % of control

COC(=O)C(C)(N)Cc1ccc(O)c(C)c1 (stereo unspecified)
inactive: [12] 96 % of control | [13] 108 % of control | [14] 100 % of control | [15] 101 % of control | [16] 95 % of control

CCOC(=O)NN(C(=O)OCC)c1c(NN)n(C)c(=O)n(C)c1=O
inactive: [17] 107 % of control | dose: 150.0 mg/kg/injection, schedule: Q04DX003 (ip), vehicle: saline 93 % of control | [18] 91 % of control

CC(=N\N=C(N)N)/C(C)=N/N=C(N)N
inactive: [1] 101 % of control | [2] 98 % of control

CN1C(=O)N(Br)C(C)(C)C1=O
inactive: [19] 95 % of control | [20] 106 % of control | dose: 100.0 mg/kg/injection, schedule: Q01DX001 (ip), vehicle: Klucel (hydroxypropylcellulose) (HPC) 92 % of control | [12] 98 % of control | [13] 100 % of control | dose: 200.0 mg/kg/injection, schedule: Q01DX001 (ip), vehicle: Klucel (hydroxypropylcellulose) (HPC) 102 % of control | [15] 97 % of control

O=C(O)c1ccccc1C(=O)OO
inactive: [9] 97 % of control | dose: 100.0 mg/kg/injection, schedule: Q01DX009 (ip), vehicle: saline with Tween-80 97 % of control | dose: 200.0 mg/kg/injection, schedule: Q01DX009 (ip), vehicle: saline with Tween-80 97 % of control

Cc1nc(N)c2c(n1)C(Cc1ccccc1)N(C(=O)c1ccccc1)C2 (stereo unspecified)
inactive: [21] 97 % of control | [22] 97 % of control | [23] 103 % of control

O=C(Nc1ccc(F)cc1)Nc1cccc(Cl)c1
inactive: dose: 50.0 mg/kg/injection, schedule: Q01DX001 (ip), vehicle: carboxymethylcellulose (CMC) 101 % of control | [21] 101 % of control | [22] 93 % of control | [23] 106 % of control

C=CCOP(=O)(OCC=C)c1ccccc1
inactive: dose: 55.0 mg/kg/injection, schedule: Q01DX Z (ip), vehicle: methylcellulose (MC) 89 % of control | dose: 83.0 mg/kg/injection, schedule: Q01DX Z (ip), vehicle: methylcellulose (MC) 98 % of control | dose: 125.0 mg/kg/injection, schedule: Q01DX Z (ip), vehicle: methylcellulose (MC) 93 % of control

CCCN(CCC)CC(C)O (stereo unspecified)
inactive: dose: 100.0 mg/kg/injection, schedule: Q04DX003 (ip), vehicle: saline 93 % of control | dose: 200.0 mg/kg/injection, schedule: Q04DX003 (ip), vehicle: saline 97 % of control

O=C(COc1ccc(Cl)cc1)OCCO
inactive: dose: 100.0 mg/kg/injection, schedule: Q01DX001 (ip), vehicle: gum acacia 90 % of control | dose: 200.0 mg/kg/injection, schedule: Q01DX001 (ip), vehicle: gum acacia 96 % of control | dose: 400.0 mg/kg/injection, schedule: Q01DX001 (ip), vehicle: gum acacia 95 % of control

C=CC[Si](C)(C)N1CC1
inactive: dose: 12.5 mg/kg/injection, schedule: Q01DX001 (ip), vehicle: carboxymethylcellulose (CMC) 108 % of control

CCOc1ccccc1/C=N\NC(=O)CCCC(=O)N/N=C/c1ccccc1OCC
inactive: dose: 400.0 mg/kg/injection, schedule: Q01DX001 (ip), vehicle: saline 111 % of control

OC1C2C3CCC(C3)C2C(O)C2C3CCC(C3)C12 (stereo unspecified)
inactive: [6] 101 % of control | [7] 101 % of control

CCN(CC)CCCC(C)Nc1ccnc(/C=C/c2ccc(Cl)cc2)c1 (stereo unspecified)
inactive: dose: 12.0 mg/kg/injection, schedule: Q01DX009 (ip), vehicle: Klucel (hydroxypropylcellulose) (HPC) 92 % of control | dose: 12.5 mg/kg/injection, schedule: Q04DX003 (ip), vehicle: Klucel (hydroxypropylcellulose) (HPC) 97 % of control | dose: 25.0 mg/kg/injection, schedule: Q01DX009 (ip), vehicle: Klucel (hydroxypropylcellulose) (HPC) 100 % of control | [24] 101 % of control | dose: 25.0 mg/kg/injection, schedule: Q04DX003 (ip), vehicle: Klucel (hydroxypropylcellulose) (HPC) 103 % of control | [19] 95 % of control | [25] 95 % of control | [20] 97 % of control | [17] 105 % of control | [13] 96 % of control | [18] 93 % of control

CC(C(=O)N1c2ccccc2Sc2ccccc21)[N+]1(C)CCCC1 (stereo unspecified)
inactive: dose: 3.12 mg/kg/injection, schedule: Q01DX009 (ip), vehicle: saline 97 % of control | dose: 6.25 mg/kg/injection, schedule: Q01DX009 (ip), vehicle: saline 103 % of control | dose: 12.5 mg/kg/injection, schedule: Q01DX009 (ip), vehicle: saline 102 % of control | [24] 102 % of control | dose: 25.0 mg/kg/injection, schedule: Q04DX003 (ip), vehicle: saline 107 % of control | [25] 91 % of control | dose: 50.0 mg/kg/injection, schedule: Q04DX003 (ip), vehicle: saline 91 % of control

Cc1cccc(N2CCN(c3ccncc3N)CC2C)c1 (stereo unspecified)
inactive: dose: 19.0 mg/kg/injection, schedule: Q01DX009 (ip), vehicle: saline with Tween-80 102 % of control | dose: 37.5 mg/kg/injection, schedule: Q04DX003 (ip), vehicle: saline with Tween-80 94 % of control | dose: 38.0 mg/kg/injection, schedule: Q01DX009 (ip), vehicle: saline with Tween-80 91 % of control | dose: 75.0 mg/kg/injection, schedule: Q01DX009 (ip), vehicle: saline with Tween-80 89 % of control | dose: 75.0 mg/kg/injection, schedule: Q04DX003 (ip), vehicle: saline with Tween-80 94 % of control

COC1=NS(=O)(=O)N=C(C)O1
inactive: [13] 91 % of control | [15] 102 % of control | [16] 93 % of control

CC(NC(=O)c1ccccc1)C(=O)O (stereo unspecified)
inactive: [19] 110 % of control | [12] 91 % of control | [3] 90 % of control | [4] 108 % of control | [5] 93 % of control

Cc1ccc(C)c(NC(=O)c2ccccc2N)c1
inactive: [12] 98 % of control | [13] 104 % of control | [14] 93 % of control | [15] 97 % of control | dose: 400.0 mg/kg/injection, schedule: Q01DX009 (ip), vehicle: Klucel (hydroxypropylcellulose) (HPC) 93 % of control | [16] 92 % of control

CCCCCCCCC(C)NCCOC(=O)c1ccc(N)cc1 (stereo unspecified)
inactive: dose: 9.38 mg/kg/injection, schedule: Q01DX001 (ip), vehicle: other 102 % of control | dose: 18.75 mg/kg/injection, schedule: Q01DX001 (ip), vehicle: other 101 % of control | dose: 37.5 mg/kg/injection, schedule: Q01DX001 (ip), vehicle: other 98 % of control

COc1ccc(-c2nc(N)ncc2CSC)cc1
inactive: [11] 101 % of control | dose: 200.0 mg/kg/injection, schedule: Q04DX003 (ip), vehicle: saline with Tween-80 86 % of control
